Results as given in patent US20090099351A1, “NYLON POLYRIBONUCLEOSIDES” (New York University, priority 2007, published 2009).

System: Phosphodiesterase II (calf spleen phosphodiesterase, CSP)
Experiment: Phosphodiesterase II (CSP) controlled exonuclease digestion monitored by MALDI-TOF MS
Type: in vitro ADME
Conditions: 37° C.; for time for CSP digestion to reach the modified nucleotides: 5′-3′ exonuclease; for degradation of the remaining modified fragment by CSP: after 4 h, fragment starting at modified nucleotides
Experimental: Phosphodiesterase II controlled digestion for ODNs sequencing. The controlled digestion procedure followed slight modification of the reported protocol (Chou et al., 2000). ODN ([…] in 5 μL water) was mixed with phosphodiesterase II (calf spleen phosphodiesterase, CSP) solution (5 milliunits in 5 μL water) and ammonium citrate water solution (1 μL, 50 g/L). After vortex mixing and centrifuge, the mixture was incubated at 37° C. Aliquots (1 μL) were removed after 0.5, 2, 4, 9, 15, 20, 30, 40, 60, 240 min and quickly mixed with trihydroxyacetophenone (THAP, as MALDI-TOF matrix) solution (1 μL, 30 mg in 1 mL methanol) before being placed in dry ice to quench the reaction. All digestion aliquots were spotted on a target and analyzed by MALDI-TOF MS.
To locate the modified regions of nylon nucleic acid, controlled exonuclease digestion was performed on the template-synthesized nylon nucleic acid 3b and 8b with DNA 1 as a control, and monitored as a function of time. Phosphodiesterase II (calf spleen phosphodiesterase, CSP) served as the exonuclease, cleaving from the 5′-terminus. […] In 2 min, the digestion of 3b reached modified nucleotides UnUc. It took 4 min for the digestion of 8b to move to the modified region. […] It has been reported that CSP is inhibited by sugar-modified nucleotides (Pieles et al., 1993) and not by base-modified nucleotides, so these CSP digestion results are consistent with the 2′-ribose modification present in nylon nucleic acids. Furthermore, the sequence information about modified nucleotides from the 5′-end within nylon nucleic acids were also verified.

time for CSP digestion to reach the modified nucleotides	degradation of the remaining modified fragment by CSP	Substance	DNA fragments remaining after CSP digestion (in 1 h)
–	–	5′-GCATAGTTTTTTGTCTAC (DNA, backbone and methylation of C not given here) [DNA 1, reference compound]	no DNA fragments longer than trimer were detected
2 min	no degradation was detected	5′-GCATAGTTUnUcTTGTCTAC [3b]	–
4 min	no degradation was detected	5′-GCATAGUcUnnUccUnnUccUnGTCTAC [8b]	–
